Assay results reported in US20070142352A1, “Pteridinone Derivatives as Modulators of Chemokine Receptor Activity” (ASTRAZENECA AB, priority 2001, published 2007).

melting point	Compound
197 to 199 °C	C[C@H](CO)Nc1nc(SCc2cccc(F)c2F)nc2[nH]c(=O)c(NCCO)nc12 [Example 1, 2-[[(2,3-difluorophenyl)methyl]thio]-6-[(2-hydroxyethyl)amino]-4-[[(1R)-2-hydroxy-1-methylethyl]amino]-7(8H)-pteridinone]
80 to 100 °C	C[C@H](CO)Nc1nc(SCc2cccc(F)c2F)nc2[nH]c(=O)c(NCc3ccccc3)nc12 [Example 2, 2-[[(2,3-difluorophenyl)methyl]thio]-4-[[(1R)-2-hydroxy-1-methylethyl]amino]-6-[(phenylmethyl)amino]-7(8H)-pteridinone]
